Laboratory results as given in patent publication US8252832B2, “Kinesin inhibitors as cancer therapeutics” (Novartis AG, priority 2007, dated 2012).
Marks after values point to notes of the source that are not given here.

Tested on: MV4; 11-luc disseminated AML disease
Experiment: MV4; 11-luc disseminated disease model, tumor response and survival
Assay type: in vivo, mouse
Method: Subcutaneous tumor efficacy studies were performed using outbred athymic nu/nu mice approximately 6-8 weeks old (Charles River Laboratories, Hollister, Calif.). The efficacy study in the disseminated disease model was performed using immunodeficient NOD-SCID female mice approximately 7-8 weeks old (Jackson Laboratories, Bar Harbor, Me.). […] Routine animal care and assurance of welfare were as described above.
Human MV4; 11 acute myelogenous leukemia cells were obtained from American Tissue Culture Collection (catalog #CRL-9591, Rockville, Md.) and tested to be free of Mycoplasma sp. and murine viruses in the IMPACT1 PCR assay panel (RADIL, University of Missouri, Columbia, Mo.). For the disseminated disease model, a stable pool of MV4; 11 cells expressing the luciferase gene was received from Fangxian Sun at the Genomics Institute of the Novartis Research Foundation in San Diego, Calif. (MV4; 11-luc). The MV4; 11 cells were grown in Iscove's modified Dulbecco's medium (Mediatech Inc., catalog #15-016-CV) supplemented with 10% fetal bovine serum (JRH Biosciences, catalog #12003-1000M), 4 mM L-glutamine and 5 ng/mL recombinant human […] (GM-CSF) (R&D Systems, catalog #215-GM). MV4; 11-luc were grown in the same media, but with the addition of 2 micrograms/mL of puromycin for selection of luciferase expression. These cells were grown as suspension cultures, maintained at 37° C. in a humidified atmosphere containing 5% carbon dioxide. Cells were cultured for fewer than 10 passages prior to use. Cells were harvested at approximately 2 million cells/mL, and centrifuged at ˜800×g for 5 minutes at 4° C. and then resuspended in a cold HBSS (Mediatech Inc., catalog #21-021-CV) at a concentration of 25 million cells/mL (containing 50% Matrigel™, BD Biosciences, catalog #354234) for implantation subcutaneously (injection volume of 0.2 mL) or at a concentration of 100 million cells/mL for implantation intravenously (i.v.) via the tail vein (injection volume of 0.1 mL). Mice were irradiated with 3 gray for 3 minutes one day prior to the i.v. cell implant.
The compound IIa (free base) and SB-715992 (free base) were formulated in 20% Captisol for a dose volume of 8 mL/kg. Doses were adjusted to each animal's body weight.
For the efficacy evaluation in the disseminated disease model, female NOD-SCID mice received whole-body irradiation at 3 gray the day before tail vein injection of 10 million cells in 0.1 mL HBSS. Forty mice were randomized and enrolled on study 28 days post-implant, with a mean photon count (dorsal view+ventral view) of approximately 5×10^7 photons/second, as determined by bioluminescence imaging. Approximately 10 minutes prior to imaging, mice were injected i.p. with 150 mg/kg luciferin (Xenogen Corporation, Alameda, Calif.), followed by anesthetization with isoflurane. Photon emission was measured using a charge coupled device camera in the IVIS imaging system (Xenogen Corporation). Briefly, a gray-scale image of the mice was captured, followed by an overlay of a bioluminescence map representing the spatial distribution of photons detected from cleaved luciferin in the cancer cells expressing luciferase. Signal intensity was quantified using a customized version of the IGOR Pro version 4.09A Software (WaveMetrics, Inc., Lake Oswego, Oreg.) called Living Image version 2.50.2 (Xenogen). The sum of all detected photon counts from the dorsal+ventral views was determined. Bioluminescence of cancer cells in the animals was measured by imaging on designated days until the first mice developed hind limb paralysis due to disease burden, the main end point for when to humanely euthanize mice. The day of euthanasia for each mouse was recorded and the remaining percentage of mice surviving was plotted over time (Kaplan-Meier survival analysis). P values were calculated using the log-rank test (GraphPad Prism 4.0 software) to assess differences between treated and control groups (p<0.05 was considered significant). […]

CC(C)(C)[C@H](c1nc(-c2cc(F)ccc2F)cn1Cc1ccccc1)N(CC[C@H](N)CF)C(=O)CO [Compound IIa]
Median Day of Survival (0.25 mg/kg, q4d × 3, i.v): 27 days | Δ Tumor bioluminescence, Day 12 (0.25 mg/kg, q4d × 3, i.v): 4.3 × 10^8 photons/sec | ΔT/ΔC, Day 12 (%) (0.25 mg/kg, q4d × 3, i.v): 46% | Median Day of Survival (0.25 mg/kg, q4d × 3, i.v, listed as COMPOUND IIa): 27** day | Median Day of Survival (0.5 mg/kg, q4d × 3, i.v): 31 days | Regression, Day 12 (%) (0.5 mg/kg, q4d × 3, i.v): 9* % | Δ Tumor bioluminescence, Day 12 (0.5 mg/kg, q4d × 3, i.v): −4.0 × 10^6 photons/sec | Median Day of Survival (0.5 mg/kg, q4d × 3, i.v, listed as COMPOUND IIa): 31** day | Median Day of Survival (1 mg/kg, q4d × 3, i.v.): 30 days | Regression, Day 12 (%) (1 mg/kg, q4d × 3, i.v.): 80* % | Median Day of Survival (1 mg/kg, q4d × 3, i.v, listed as COMPOUND IIa): 30** day
